Source: ChEMBL document CHEMBL5528050, “Discovery of a Novel Series of Homo sapiens Caseinolytic Protease P Agonists for Colorectal Adenocarcinoma Treatment via ATF3-Dependent Integrated Stress Response” (J Med Chem, 2024)
Blank lines part the entries; values can stand above or below the compound they belong to. Active and inactive are the calls of the source. The rule behind the calls is not given here.

How the values were obtained:
HCT-116 [1] = test: cells; settings: Homo sapiens, HCT-116, 72 h
Description: Antiproliferative activity against human HCT-116 cells assessed as inhibition of cell growth measured after 72 hrs by CCK-8 method

[2] = Antiproliferative activity against human L02 cells assessed as inhibition of cell growth measured after 72 hrs by CCK-8 method; assay type: toxicity, cell-based
HCT-116 [3] = test: Induction of apoptosis in human HCT-116 cells assessed as apoptotic rate at medium dose measured after 48 hrs by annexin V-FITC/7-AAD based flow cytometry analysis relative to control; assay type: functional
HCT-116 [4] = test: Induction of apoptosis in human HCT-116 cells assessed as cell death at 20 uM measured after 48 hrs by annexin V-FITC/7-AAD based flow cytometry analysis relative to control; assay type: functional
[5] = Antiproliferative activity against rat H9c2 cells assessed as inhibition of cell growth measured after 72 hrs by CCK-8 method; assay type: toxicity, cell-based
HCT-116 [6] = test: Induction of cell cycle arrest in human HCT-116 cells assessed as effect on number of cells at G1 phase at 5 to 20 uM measured after 48 hrs by PI staining based flow cytometry analysis; assay type: functional; settings: dose 5-20 µM
HCT-116 [7] = test: Induction of cell cycle arrest in human HCT-116 cells assessed as increase in number of cells at G2 phase at high dose measured after 48 hrs by PI staining based flow cytometry analysis; assay type: functional
DLD-1 = test: cells; settings: Homo sapiens, DLD-1, 72 h
Description: Antiproliferative activity against human DLD-1 cells assessed as inhibition of cell growth measured after 72 hrs by CCK-8 method

HCT-116 [8] = test: Induction of ROS generation in human HCT-116 cells assessed as increase in intracellular ROS level measured after 48 hrs DCFH-DA staining based analysis; assay type: functional, cell-based
HCT-116 [9] = test: Inhibition of cell migration in human HCT-116 cells at 5 to 20 uM measured after 24 to 48 hrs by microscopy based analysis; assay type: functional; settings: dose 5-20 µM, time 24-48 hrs
[10] = target: T1, ATP-dependent Clp protease proteolytic subunit, mitochondrial (Homo sapiens, UniProt Q16740); test: Agonist activity at human ClpP expressed in Escherichia coli using AC-WLA-AMC as substrate measured every 5 mins for 1 hr by fluorescence based analysis
HCT-116 [11] = test: Inhibition of mitochondrial function in human HCT-116 cells assessed as reduction in ATP production; assay type: functional, cell-based
[12] = Antiproliferative activity against HEK293 cells assessed as inhibition of cell growth measured after 72 hrs by CCK-8 method; assay type: toxicity, cell-based; settings: human
SW-620 = test: cells; settings: Homo sapiens, SW-620, 72 h
Description: Antiproliferative activity against human SW-620 cells assessed as inhibition of cell growth measured after 72 hrs by CCK-8 method

HCT-116 [13] = test: Induction of apoptosis in human HCT-116 cells assessed as apoptotic rate at low dose measured after 48 hrs by annexin V-FITC/7-AAD based flow cytometry analysis relative to control; assay type: functional
[14] = target: T1, ATP-dependent Clp protease proteolytic subunit, mitochondrial; test: Binding affinity to human ClpP expressed in Escherichia coli assessed as dissociation constant by ITC method
HCT-116 [15] = test: Induction of apoptosis in human HCT-116 cells measured after 48 hrs by annexin V-FITC/7-AAD based flow cytometry analysis; assay type: functional, cell-based
SW480 = test: cells; settings: Homo sapiens, SW480, 72 h
Description: Antiproliferative activity against human SW480 cells assessed as inhibition of cell growth measured after 72 hrs by CCK-8 method

HCT-116 [16] = test: Antiproliferative activity against ClpP knockdown human HCT-116 cells assessed as fold increase in IC50; assay type: functional
HCT-116 [17] = test: Induction of cell cycle arrest in human HCT-116 cells assessed as increase in number of cells at G2 phase at 5 uM measured after 48 hrs by PI staining based flow cytometry analysis; assay type: functional
Cell membrane = test: Induction of mitochondrial membrane potential loss in human HCT-116 cells assessed as increase in green fluorescence at high dose measured after 48 hrs by JC-1 staining based microscopy analysis; assay type: cell membranes
[18] = Antiproliferative activity against human HCoEpiC cells assessed as inhibition of cell growth measured after 72 hrs by CCK-8 method; assay type: toxicity, cell-based
[19] = target: T1, ATP-dependent Clp protease proteolytic subunit, mitochondrial; settings: filed as agonist, dose 100.0 µM, time 30.0 min
HCT-116 [20] = test: Antiproliferative activity against human HCT-116 cells assessed reduction in clone formation measured after 48 hrs by crystal violet staining based analysis; assay type: functional, cell-based
HCT-15 = test: cells; settings: Homo sapiens, HCT-15, 72 h
Description: Antiproliferative activity against human HCT-15 cells assessed as inhibition of cell growth measured after 72 hrs by CCK-8 method

HCT-116 [21] = test: Upregulation of slug expression in human HCT-116 cells measured after 48 hrs by Western blot analysis; assay type: functional, cell-based
[22] = Cmax in Sprague-Dawley rat at 5 mg/kg, iv by LC-MS/MS analysis; assay type: ADME, organism-based; settings: in vivo
[23] = Clearance in Sprague-Dawley rat at 5 mg/kg, iv by LC-MS/MS analysis; assay type: ADME, organism-based; settings: in vivo
[24] = MRT (0 to 12hrs) in Sprague-Dawley rat at 15 mg/kg, po by LC-MS/MS analysis; assay type: ADME, organism-based; settings: in vivo
[25] = Half life in Sprague-Dawley rat at 15 mg/kg, po by LC-MS/MS analysis; settings: in vivo
[26] = Half life in Sprague-Dawley rat at 5 mg/kg, iv by LC-MS/MS analysis; settings: in vivo
[27] = AUC (0 to 12hrs) in Sprague-Dawley rat at 15 mg/kg, po by LC-MS/MS analysis; assay type: ADME, organism-based; settings: in vivo
[28] = Oral bioavailability in Sprague-Dawley rat at 15 mg/kg by LC-MS/MS analysis; assay type: ADME, organism-based; settings: in vivo
[29] = Cmax in Sprague-Dawley rat at 15 mg/kg, po by LC-MS/MS analysis; assay type: ADME, organism-based; settings: in vivo
[30] = MRT (0 to 12 hrs) in Sprague-Dawley rat at 5 mg/kg, iv by LC-MS/MS analysis; assay type: ADME, organism-based; settings: in vivo
[31] = AUC (0 to 12hrs) in Sprague-Dawley rat at 5 mg/kg, iv by LC-MS/MS analysis; assay type: ADME, organism-based; settings: in vivo
[32] = Tmax in Sprague-Dawley rat at 15 mg/kg, po by LC-MS/MS analysis; assay type: ADME, organism-based; settings: in vivo

T1 sequence (Q16740 whole entry): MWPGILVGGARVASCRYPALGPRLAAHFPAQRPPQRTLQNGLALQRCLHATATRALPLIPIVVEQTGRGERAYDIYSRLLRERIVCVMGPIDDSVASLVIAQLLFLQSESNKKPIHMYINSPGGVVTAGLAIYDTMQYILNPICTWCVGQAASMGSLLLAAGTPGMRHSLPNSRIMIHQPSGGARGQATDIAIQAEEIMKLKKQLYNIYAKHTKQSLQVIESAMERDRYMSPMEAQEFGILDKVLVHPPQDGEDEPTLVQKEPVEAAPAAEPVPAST

IC50 (HCT-116 [1]): 95.3 µM
SMILES: O=C(NCc1ccc2c(c1)OCO2)C1CCCN(C(=O)c2cc(C(F)(F)F)cc(C(F)(F)F)c2)C1 (stereo unspecified)

IC50 (HCT-116 [1]): 76.9 µM
SMILES: O=C(NCCNC(=O)c1cc(C(F)(F)F)cc(C(F)(F)F)c1)c1ccc(Cl)cc1

IC50 (HCT-116 [1]): 30.5 µM
SMILES: O=C(Nc1cccc(Cl)c1)C1CCCN(C(=O)c2cc(C(F)(F)F)cc(C(F)(F)F)c2)C1 (stereo unspecified)

IC50 (HCT-116 [1]): 40.3 µM
SMILES: O=C(Nc1ccc(Cl)cc1)C1=CCCN(C(=O)c2cc(C(F)(F)F)cc(C(F)(F)F)c2)C1

IC50 (HCT-116 [1]): 16.7 µM
SMILES: O=C(Nc1ccc(Cl)cc1)C1CCCN(C(=O)c2cc(C(F)(F)F)cc(C(F)(F)F)c2)C1 (stereo unspecified)

IC50 (HCT-116 [1]): 15.7 µM
SMILES: O=C(Nc1ccc(Cl)c(Cl)c1)C1CCCN(C(=O)c2cc(C(F)(F)F)cc(C(F)(F)F)c2)C1 (stereo unspecified)

IC50 (HCT-116 [1]): 40.1 µM
SMILES: O=C(Nc1ccc(Oc2ccccc2)cc1)C1CCCN(C(=O)c2cc(C(F)(F)F)cc(C(F)(F)F)c2)C1 (stereo unspecified)

IC50 (HCT-116 [1]): 25.3 µM
SMILES: O=C(NCc1ccc(C(F)(F)F)cc1)C1=CCCN(Cc2cc(C(F)(F)F)cc(C(F)(F)F)c2)C1

IC50 (HCT-116 [1]): 20.1 µM
SMILES: O=C(NCc1ccc(C(F)(F)F)cc1)C1=CCCN(Cc2cccc(F)c2)C1

IC50 (HCT-116 [1]): 25.1 µM
SMILES: O=C(NCc1ccc(C(F)(F)F)cc1)C1CCCN(C(=O)c2cc(C(F)(F)F)cc(C(F)(F)F)c2)C1 (stereo unspecified)

IC50 (HCT-116 [1]): 50.4 µM
SMILES: O=C(NCc1ccc(C(F)(F)F)cc1)C1=CCCN(Cc2ccccc2)C1
Activity (HCT-116 [21]): Active

IC50 (HCT-116 [1]): 25.6 µM
SMILES: O=C(NCc1ccc(C(F)(F)F)cc1)C1=CCCN(Cc2ccc(F)c(F)c2)C1

IC50 (HCT-116 [1]): 30 µM
SMILES: O=C(Nc1ccc(C(F)(F)F)cc1)C1CCCN(C(=O)c2cc(C(F)(F)F)cc(C(F)(F)F)c2)C1 (stereo unspecified)

IC50 (HCT-116 [1]): 56.5 µM
SMILES: O=C(NCCc1ccc(Cl)cc1)C1CCCN(C(=O)c2cc(C(F)(F)F)cc(C(F)(F)F)c2)C1 (stereo unspecified)

IC50 (HCT-116 [1]): 59.7 µM
SMILES: O=C(Nc1ccncc1)C1CCCN(C(=O)c2cc(C(F)(F)F)cc(C(F)(F)F)c2)C1 (stereo unspecified)

IC50 (HCT-116 [1]): 20.5 µM
SMILES: O=C(NCc1ccc(C(F)(F)F)cc1)C1=CCCN(C(=O)c2cc(C(F)(F)F)cc(C(F)(F)F)c2)C1

IC50 (HCT-116 [1]): 64.5 µM
SMILES: O=C(CCNC(=O)c1cc(C(F)(F)F)cc(C(F)(F)F)c1)Nc1ccc(Cl)cc1

More lines, now with the values behind:

SMILES: N#Cc1cccc(CN2CCCC(C(=O)NCc3ccc(Cl)c(Cl)c3)C2)c1 (stereo unspecified)
IC50 (HCT-116 [1]): 25.3 µM

SMILES: N#Cc1cccc(CN2CCCC(C(=O)NCc3ccc4ccccc4c3)C2)c1 (stereo unspecified)
IC50 (HCT-116 [1]): 48.3 µM

SMILES: O=C(Nc1ccc(Cl)cc1)c1cccc(NC(=O)c2cc(C(F)(F)F)cc(C(F)(F)F)c2)c1
IC50 (HCT-116 [1]): 25.3 µM

SMILES: O=C(Nc1ccc(Cl)cc1)C1CCCN(C(=O)Cc2cc(Cl)ccc2F)C1 (stereo unspecified)
IC50 (HCT-116 [1]): 67.5 µM

SMILES: CC(ONC(=O)c1cc(C(F)(F)F)cc(C(F)(F)F)c1)C(=O)Nc1ccc(Cl)cc1 (stereo unspecified)
IC50 at 72 h [2]: 30.4 µM
Activity (HCT-116 [3]): 22%
Activity (HCT-116 [4]): 40%
IC50 at 72 h [5]: 35.5 µM
Activity (HCT-116 [6]): inactive
Activity (HCT-116 [7]): ~40%
IC50 (DLD-1): 29.8 µM
Activity (HCT-116 [8]): Active
inhibition (HCT-116 [9]): Active
EC50 [10]: 0.0105 µM
inhibition (HCT-116 [11]): Active
IC50 at 72 h [12]: 55.4 µM
IC50 (SW-620): 15.5 µM
IC50 (HCT-116 [1]): 20.5 µM
Activity (HCT-116 [13]): 15%
Kd [14]: 8.41 µM
Activity (HCT-116 [15]): Dose-Dependent Effect
IC50 (SW480): 41.3 µM
fold change (FC) (HCT-116 [16]): 1.5
Activity (HCT-116 [17]): 20%
Activity (Cell membrane): Active
IC50 at 72 h [18]: 61.7 µM
ΔTm [19]: 4 °C
Activity (HCT-116 [20]): Dose-Dependent Effect
IC50 (HCT-15): 37.5 µM

SMILES: N#Cc1cccc(CN2CCCC(C(=O)NCc3ccc(Cl)cc3Cl)C2)c1 (stereo unspecified)
IC50 (HCT-116 [1]): 40.9 µM

SMILES: O=C(NCc1ccccc1)C1=CCCN(Cc2ccccc2)C1
IC50 (HCT-116 [1]): 55.4 µM

SMILES: N#Cc1cccc(CN2CCC=C(C(=O)Nc3ccc(Cl)cc3)C2)c1
IC50 (HCT-116 [1]): 2.5 µM

SMILES: N#Cc1cccc(CN2CCCC(C(=O)NCc3ccc(C(F)(F)F)cc3)C2)c1 (stereo unspecified)
IC50 (HCT-116 [1]): 20.4 µM

SMILES: O=C(Nc1cc(Cl)c(Cl)c(Cl)c1)C1CCCN(C(=O)c2cc(C(F)(F)F)cc(C(F)(F)F)c2)C1 (stereo unspecified)
IC50 (HCT-116 [1]): 16.4 µM

SMILES: CC(C)(C)c1ccc(CNC(=O)C2CCCN(Cc3cccc(C#N)c3)C2)cc1 (stereo unspecified)
IC50 (HCT-116 [1]): 40 µM

SMILES: CC1(C)CCC(NC(=O)C2CCCN(C(=O)c3cc(C(F)(F)F)cc(C(F)(F)F)c3)C2)CC1 (stereo unspecified)
IC50 (HCT-116 [1]): 80.4 µM

SMILES: O=C(Nc1ccc(Cl)cc1)C1CCCN(C(=O)c2cccc(-c3ccco3)c2)C1 (stereo unspecified)
IC50 (HCT-116 [1]): 76.5 µM

SMILES: CC(NC(=O)c1cc(C(F)(F)F)cc(C(F)(F)F)c1)C(=O)Nc1ccc(Cl)cc1 (stereo unspecified)
IC50 (HCT-116 [1]): 58.4 µM

SMILES: N#Cc1cccc(CN2CCCC(C(=O)NCc3ccc4c(c3)OCO4)C2)c1 (stereo unspecified)
IC50 (HCT-116 [1]): 50 µM

SMILES: N#Cc1cccc(CN2CCCC(C(=O)NCc3ccc(Cl)cc3)C2)c1 (stereo unspecified)
IC50 (HCT-116 [1]): 22.1 µM

SMILES: Cc1ccccc1CN1C(=O)C2=C(CCN(Cc3ccccc3)C2)N2CCN=C12 [DORDAVIPRONE]
Cmax [22]: 2770 ng/mL
clearance [23]: 42.7 mL/min/kg
MRT last [24]: 90 min
half-life [25]: 66 min
half-life [26]: 54 min
AUC(0-t) [27]: 894 ng·h/mL
bioavailability [28]: 15.3%
Cmax [29]: 566 ng/mL
MRT last [30]: 54 min
AUC(0-t) [31]: 1960 ng·h/mL
Tmax [32]: 24 min

SMILES: O=C(Nc1ccc(Cl)cc1)C1=CCCN(Cc2ccccc2)C1
IC50 (HCT-116 [1]): 83.5 µM

SMILES: N#Cc1cccc(CN2CCCC(C(=O)Nc3ccc(Cl)cc3)C2)c1 (stereo unspecified)
IC50 (HCT-116 [1]): 20.3 µM
